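Step 1: Grow cells in 96-well plates. Step 2: Expose to compound for 48 hours at 5 concentrations. Step 3: Interpolate endpoints linearly; if unreached, use highest concentration. Abbreviation: GI50, concentration required for 50% inhibition of growth.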 The source made the active and inactive calls. Rule as the data show it: active = GI50 up to about 1.1 µM and inactive = higher.
Experiments:
Assay in all cases: growth of human tumour cells (NCI), 48 h
OVCAR-8 = system: OVCAR-8
TK-10 = system: TK-10
CCRF-CEM = system: CCRF-CEM
MCF7 = system: MCF7
SF-295 = system: SF-295
RPMI-8226 = system: RPMI-8226
ACHN = system: ACHN
COLO 205 = system: COLO 205
UACC-257 = system: UACC-257
NCI-H460 = system: NCI-H460
OVCAR-5 = system: OVCAR-5
PC-3 = system: PC-3
K562 = system: K562
MDA-MB-231 = system: MDA-MB-231
LOX IMVI = system: LOX IMVI
SF-539 = system: SF-539
SNB-75 = system: SNB-75
HCT-15 = system: HCT-15
Hs-578T = system: Hs-578T
786-0 = system: 786-0
DU-145 = system: DU-145
A498 = system: A498
KM12 = system: KM12
NCI-H23 = system: NCI-H23
U-251 = system: U-251
EKVX = system: EKVX
A549 = system: A549
SF-268 = system: SF-268
SN12C = system: SN12C
SW-620 = system: SW-620
IGROV-1 = system: IGROV-1
CAKI-1 = system: CAKI-1
UO-31 = system: UO-31
HT-29 = system: HT-29
SR = system: SR
UACC-62 = system: UACC-62
SK-MEL-5 = system: SK-MEL-5
MDA-MB-435 = system: MDA-MB-435
M14 = system: M14
BT-549 = system: BT-549
SK-OV-3 = system: SK-OV-3
HOP-92 = system: HOP-92
SNB-19 = system: SNB-19
HL-60 = system: HL-60
HCC 2998 = system: HCC 2998
OVCAR-4 = system: OVCAR-4
Malme-3M = system: Malme-3M
NCI/ADR-RES = system: NCI/ADR-RES
HOP-62 = system: HOP-62
MOLT-4 = system: MOLT-4
MDA-N = system: MDA-N
OVCAR-3 = system: OVCAR-3
SK-MEL-2 = system: SK-MEL-2
NCI-H522 = system: NCI-H522
T47D = system: T47D
NCI-H226 = system: NCI-H226
HCT-116 = system: HCT-116
RXF 393 = system: RXF 393
SK-MEL-28 = system: SK-MEL-28

Measured: GI50

CN1CCN(CC(=O)N2CCCn3c2nc2ccccc2c3=O)CC1
inactive: OVCAR-8 > 100 µM | TK-10 > 100 µM | CCRF-CEM > 100 µM | MCF7 > 100 µM | SF-295 > 100 µM | RPMI-8226 > 100 µM | ACHN > 100 µM | COLO 205 > 100 µM | UACC-257 > 100 µM | NCI-H460 > 100 µM | OVCAR-5 > 100 µM | PC-3 > 100 µM | K562 > 100 µM | MDA-MB-231 > 100 µM | LOX IMVI > 100 µM | SF-539 > 100 µM | SNB-75 > 100 µM | Hs-578T > 100 µM | 786-0 > 100 µM | DU-145 > 100 µM | A498 > 100 µM | KM12 > 100 µM | NCI-H23 > 100 µM | U-251 > 100 µM | EKVX > 100 µM | A549 > 100 µM | SF-268 > 100 µM | SN12C > 100 µM | SW-620 > 100 µM | IGROV-1 > 100 µM | CAKI-1 > 100 µM | UO-31 > 100 µM | HT-29 > 100 µM | SR > 100 µM | UACC-62 > 100 µM | SK-MEL-5 > 100 µM | MDA-MB-435 > 100 µM | M14 > 100 µM | BT-549 > 100 µM | SK-OV-3 > 100 µM | HOP-92 48.2 µM | SNB-19 > 100 µM | HL-60 > 100 µM | HCC 2998 > 100 µM | OVCAR-4 > 100 µM | Malme-3M > 100 µM | NCI/ADR-RES > 100 µM | HOP-62 > 100 µM | MOLT-4 > 100 µM | MDA-N > 100 µM | OVCAR-3 > 100 µM | SK-MEL-2 > 100 µM | NCI-H522 > 100 µM | T47D > 100 µM | NCI-H226 52.1 µM | HCT-116 > 100 µM
> 100 µM: HCT-15

O=C(CCNC(=O)OCc1ccccc1)OCCCNC(=O)OCc1ccccc1
> 100 µM: HCT-15
inactive: OVCAR-8 > 100 µM | TK-10 > 100 µM | CCRF-CEM > 100 µM | MCF7 > 100 µM | SF-295 > 100 µM | RPMI-8226 > 100 µM | ACHN > 100 µM | COLO 205 > 100 µM | UACC-257 > 100 µM | NCI-H460 > 100 µM | OVCAR-5 > 100 µM | PC-3 > 100 µM | K562 > 100 µM | MDA-MB-231 > 100 µM | LOX IMVI > 100 µM | SF-539 > 100 µM | SNB-75 50.8 µM | Hs-578T > 100 µM | 786-0 > 100 µM | DU-145 > 100 µM | KM12 > 100 µM | NCI-H23 > 100 µM | U-251 > 100 µM | A549 > 100 µM | SF-268 > 100 µM | SN12C > 100 µM | SW-620 > 100 µM | IGROV-1 > 100 µM | RXF 393 > 100 µM | UO-31 > 100 µM | HT-29 > 100 µM | SR > 100 µM | UACC-62 > 100 µM | SK-MEL-5 > 100 µM | MDA-MB-435 > 100 µM | M14 > 100 µM | BT-549 > 100 µM | SK-OV-3 > 100 µM | HOP-92 > 100 µM | SNB-19 > 100 µM | HL-60 > 100 µM | HCC 2998 > 100 µM | OVCAR-4 > 100 µM | Malme-3M > 100 µM | NCI/ADR-RES > 100 µM | HOP-62 > 100 µM | MOLT-4 > 100 µM | MDA-N > 100 µM | OVCAR-3 > 100 µM | NCI-H522 > 100 µM | T47D > 100 µM | SK-MEL-28 > 100 µM | NCI-H226 > 100 µM | HCT-116 > 100 µM

COc1ccc(Cn2c3c(cc(OC(C)=O)c2=O)Cc2ccccc2-3)cc1
2.55 µM: HCT-15
inactive: OVCAR-8 7.64 µM | TK-10 13.1 µM | CCRF-CEM 2 µM | MCF7 13.7 µM | SF-295 17 µM | ACHN 7.91 µM | COLO 205 20.6 µM | UACC-257 2.28 µM | NCI-H460 3.97 µM | OVCAR-5 18.7 µM | PC-3 8.41 µM | K562 11.6 µM | MDA-MB-231 13.2 µM | LOX IMVI 6.12 µM | SF-539 8.02 µM | SNB-75 11.7 µM | Hs-578T 20 µM | 786-0 5.33 µM | DU-145 12.2 µM | KM12 11.4 µM | NCI-H23 10.5 µM | U-251 8.65 µM | EKVX 7.76 µM | A549 13.9 µM | SF-268 7.82 µM | SN12C 7.55 µM | SW-620 6.64 µM | IGROV-1 7.82 µM | CAKI-1 10.7 µM | RXF 393 8.36 µM | UO-31 5.56 µM | HT-29 10.7 µM | SR 2.14 µM | UACC-62 9.1 µM | SK-MEL-5 12.2 µM | MDA-MB-435 11 µM | M14 6.24 µM | BT-549 11.2 µM | SK-OV-3 20 µM | HOP-92 9.98 µM | SNB-19 12.9 µM | HL-60 5.64 µM | HCC 2998 3.33 µM | OVCAR-4 9.95 µM | Malme-3M 10.9 µM | NCI/ADR-RES 1.81 µM | HOP-62 14.9 µM | MOLT-4 2.88 µM | MDA-N 12.1 µM | OVCAR-3 10.7 µM | SK-MEL-2 4.61 µM | NCI-H522 7.01 µM | T47D 14.6 µM | SK-MEL-28 22.1 µM | NCI-H226 14.3 µM | HCT-116 6.52 µM

OCc1cccc(Nc2nc(O)c3[nH]cnc3n2)c1
inactive: OVCAR-8 > 100 µM | TK-10 > 100 µM | CCRF-CEM > 100 µM | MCF7 > 100 µM | SF-295 > 100 µM | RPMI-8226 > 100 µM | ACHN > 100 µM | COLO 205 > 100 µM | UACC-257 > 100 µM | OVCAR-5 > 100 µM | PC-3 > 100 µM | K562 > 100 µM | MDA-MB-231 > 100 µM | LOX IMVI > 100 µM | SF-539 > 100 µM | SNB-75 > 100 µM | Hs-578T > 100 µM | 786-0 > 100 µM | DU-145 > 100 µM | KM12 > 100 µM | NCI-H23 > 100 µM | U-251 > 100 µM | EKVX > 100 µM | A549 > 100 µM | SF-268 > 100 µM | SN12C > 100 µM | SW-620 > 100 µM | IGROV-1 > 100 µM | CAKI-1 > 100 µM | RXF 393 > 100 µM | UO-31 > 100 µM | HT-29 > 100 µM | SR > 100 µM | UACC-62 > 100 µM | SK-MEL-5 > 100 µM | MDA-MB-435 > 100 µM | M14 > 100 µM | BT-549 > 100 µM | SK-OV-3 > 100 µM | HOP-92 > 100 µM | SNB-19 > 100 µM | HL-60 > 100 µM | HCC 2998 > 100 µM | OVCAR-4 > 100 µM | Malme-3M > 100 µM | NCI/ADR-RES > 100 µM | HOP-62 > 100 µM | MOLT-4 > 100 µM | MDA-N > 100 µM | OVCAR-3 > 100 µM | SK-MEL-2 > 100 µM | NCI-H522 > 100 µM | T47D > 100 µM | SK-MEL-28 > 100 µM | NCI-H226 > 100 µM | HCT-116 > 100 µM
> 100 µM: HCT-15

Source: ChEMBL document CHEMBL1201862, “PubChem BioAssay data set” (2004)
